Source: PMC3021692, “Synthesis and Pharmacological Evaluation of Novel Schiff Base Analogues of 3-(4-amino) Phenylimino) 5-fluoroindolin-2-one” (Journal of Young Pharmacists : JYP, 2010)

Key:
Assay type in all cases: in vivo
[1] = tested on: Wistar albino mice; assay: Analgesic activity, tail-flick technique; conditions: for Percent analgesic activity: mean ± SD (n = 6); for Analgesic activity (in words): tail-flick, structure-activity comparison within the series / vs diclofenac sodium
Procedure: (§1) The synthesized compounds were evaluated for analgesic, anti-inflammatory, and ulcerogenic index. […] The test compounds and the standard drugs were administered in the form of a suspension (1% carboxymethyl cellulose as a vehicle) by oral route for analgesic and anti-inflammatory but for ulcerogenicity studies by intraperitoneally as suspension in 10% v/v Tween-20. Each group consisted of six animals. The animals were procured from the C. L. Baid Metha College of pharmacy, Chennai, and were maintained in colony cages at 25 ±2°C, relative humidity of 45-55%, under a 12-h light and dark cycle; they were fed standard animal feed. All the animals were acclimatized for a week before use. The Institutional Animal Ethics Committee approved the protocol adopted for the experimentation of animals.
The analgesic activity was performed by tail-flick technique using Wistar albino mice (25-35 g) of either sex selected by the random sampling technique.[1314] Diclofenac sodium at a dose level of 10 mg/kg and 20 mg/kg was administered orally as reference drug for comparison. The test compounds at two dose levels (10, 20 mg/kg) were administered orally. The reaction time was recorded at 30 min, 1, 2, and 3 h after the treatment, and cut-off time was 10 s. The percent analgesic activity (PAA) was calculated by the following formula, where T1 is the reaction time (s) before treatment, and T2 is the reaction time (s) after treatment.

[2] = tested on: carrageenan-induced paw edema in rats; assay: Anti-inflammatory activity, carrageenan-induced paw edema test; conditions: for Percent anti-inflammatory activity (percent inhibition of paw edema): mean ± SD (n = 6); for Anti-inflammatory activity compared to reference standard diclofenac sodium (in words): carrageenan-induced paw edema in rats
Procedure: as §1
Anti-inflammatory activity was evaluated by carrageenan-induced paw edema test in rats.[15] Diclofenac sodium 10, 20 mg/kg was administered as a standard drug for comparison. The test compounds were administered at two dose levels (10 mg/kg, 20 mg/kg). The paw volumes were measured using the mercury displacement technique with the help of a plethysmograph (Model PLYAN; Buxco, USA) immediately before and 30 min, 1, 2, and 3 h after carrageenan injection. The percent inhibition of paw edema was calculated using the following formula.
Percent inhibition I = 100 1− (a−x) / (b−y)
Where x is the mean paw volume of rats before the administration of carrageenan and test compounds or reference compound (test group), a is the mean paw volume of rats after the administration of carrageenan in the test group (drug treated), b is the mean paw volume of rats after the administration of carrageenan in the control group, y is the mean paw volume of rats before the administration of carrageenan in the control group.

[3] = tested on: Albino rats of Wistar strain; assay: Evaluation of ulcerogenicity index (pylorus ligation); set-up: scale not given here; conditions: test compounds 20 mg/kg intraperitoneally, pylorus ligated on fourth day, mean ± SD (n = 6)
Procedure: The synthesized compounds were evaluated for analgesic, anti-inflammatory, and ulcerogenic index. […] The test compounds and the standard drugs were administered in the form of a suspension (1% carboxymethyl cellulose as a vehicle) by oral route for analgesic and anti-inflammatory but for ulcerogenicity studies by intraperitoneally as suspension in 10% v/v Tween-20. Each group consisted of six animals. The animals were procured from the C. L. Baid Metha College of pharmacy, Chennai, and were maintained in colony cages at 25 ±2°C, relative humidity of 45-55%, under a 12-h light and dark cycle; they were fed standard animal feed. All the animals were acclimatized for a week before use. The Institutional Animal Ethics Committee approved the protocol adopted for the experimentation of animals. Ulceration in rats was induced as described by Goyal et al. Albino rats of Wistar strain weighing 150-200 g of either sex were divided into various groups each of six animals.[16] Control group of animals was administered only with 10% v/v Tween 80 suspension intraperitonially. One group was administered with aspirin (German Remedies) intraperitoneally at a dose of 200 mg/kg once daily for 3 days. The remaining group of animals was administered with test compounds intraperitoneally at a dose of 20 mg/kg. On fourth day, Pylorus was ligated as per the method of Shay et al.[17] Animals were fasted for 36 h before the pylorus ligation procedure. Four hours after the ligation, animals were sacrificed. The stomach was removed and opened along with the greater curvature. Ulcer index was determined by the method of Ganguly and Bhatnagar.[18]

[4] = 10 mg/kg oral, 30 min after treatment
[5] = 10 mg/kg oral, 1 h after treatment
[6] = 10 mg/kg oral, 2 h after treatment
[7] = 10 mg/kg oral, 3 h after treatment
[8] = 20 mg/kg oral, 30 min after treatment
[9] = 20 mg/kg oral, 1 h after treatment
[10] = 20 mg/kg oral, 2 h after treatment
[11] = 20 mg/kg oral, 3 h after treatment
[12] = 10 mg/kg oral, 30 min after carrageenan
[13] = 10 mg/kg oral, 1 h after carrageenan
[14] = 10 mg/kg oral, 2 h after carrageenan
[15] = 10 mg/kg oral, 3 h after carrageenan
[16] = 20 mg/kg oral, 30 min after carrageenan
[17] = 20 mg/kg oral, 1 h after carrageenan
[18] = 20 mg/kg oral, 2 h after carrageenan
[19] = 20 mg/kg oral, 3 h after carrageenan

Row | Structure (SMILES) | Percent analgesic activity [1, 4] [%] | Percent analgesic activity [1, 5] [%] | Percent analgesic activity [1, 6] [%] | Percent analgesic activity [1, 7] [%] | Percent analgesic activity [1, 8] [%] | Percent analgesic activity [1, 9] [%] | Percent analgesic activity [1, 10] [%] | Percent analgesic activity [1, 11] [%] | Analgesic activity (in words) [1] | Percent anti-inflammatory activity (percent inhibition of paw edema) [2, 12] [%] | Percent anti-inflammatory activity (percent inhibition of paw edema) [2, 13] [%] | Percent anti-inflammatory activity (percent inhibition of paw edema) [2, 14] [%] | Percent anti-inflammatory activity (percent inhibition of paw edema) [2, 15] [%] | Percent anti-inflammatory activity (percent inhibition of paw edema) [2, 16] [%] | Percent anti-inflammatory activity (percent inhibition of paw edema) [2, 17] [%] | Percent anti-inflammatory activity (percent inhibition of paw edema) [2, 18] [%] | Percent anti-inflammatory activity (percent inhibition of paw edema) [2, 19] [%] | Anti-inflammatory activity compared to reference standard diclofenac sodium (in words) [2] | Ulcer index [3]
1 | O=C1Nc2ccc(F)cc2C1=Nc1ccc(N=Cc2ccc([N+](=O)[O-])cc2)cc1 [Compound N8] | 39 ± 1.75 | 46 ± 1.43 | 48 ± 1.24 | 36 ± 1.36 | 48 ± 1.46 | 51 ± 1.92 | 54 ± 1.16 | 39 ± 1.48 | further decrease of activity | 40 ± 1.65 | 44 ± 1.53 | 48 ± 1.74 | 36 ± 1.36 | 49 ± 1.46 | 52 ± 1.92 | 56 ± 1.16 | 39 ± 1.48 | equipotent | 0.92 ± 1.45
2 | O=C1Nc2ccc(F)cc2C1=Nc1ccc(N=Cc2ccc(O)cc2)cc1 [Compound N10] | 43 ± 1.55 | 46 ± 1.72 | 49 ± 1.52 | 38 ± 1.92 | 48 ± 1.56 | 52 ± 1.96 | 58 ± 1.16 | 42 ± 1.43 | – | 43 ± 1.55 | 49 ± 1.72 | 54 ± 1.52 | 39 ± 1.92 | 48 ± 1.56 | 54 ± 1.65 | 58 ± 1.16 | 42 ± 1.43 | – | 0.81 ± 1.18
3 | CCCC(C)=Nc1ccc(N=C2C(=O)Nc3ccc(F)cc32)cc1 [Compound N3] | 55 ± 1.75 | 62 ± 1.82 | 64 ± 1.35 | 46 ± 1.96 | 62 ± 1.59 | 66 ± 1.77 | 69 ± 1.24 | 52 ± 1.45 | good activity | 49 ± 1.75 | 54 ± 1.82 | 60 ± 1.35 | 43 ± 1.96 | 54 ± 1.59 | 62 ± 1.77 | 66 ± 1.24 | 52 ± 1.45 | moderately more potent | 0.85 ± 1.28
4 | O=C1Nc2ccc(F)cc2C1=Nc1ccc(N=C2CCCCC2)cc1 [Compound N4] | 48 ± 1.28 | 52 ± 1.52 | 54 ± 1.15 | 35 ± 1.76 | 55 ± 1.36 | 57 ± 1.66 | 59 ± 1.19 | 44 ± 1.65 | moderate decrease in activity | 38 ± 1.82 | 50 ± 1.24 | 55 ± 1.15 | 35 ± 1.76 | 45 ± 1.36 | 56 ± 1.83 | 60 ± 1.19 | 44 ± 1.65 | – | 0.89 ± 1.26
5 | CCC(CC)=Nc1ccc(N=C2C(=O)Nc3ccc(F)cc32)cc1 [Compound N2] | 50 ± 1.25 | 56 ± 1.32 | 60 ± 1.15 | 45 ± 1.68 | 57 ± 1.44 | 60 ± 1.90 | 64 ± 1.26 | 50 ± 1.67 | – | 42 ± 1.25 | 50 ± 1.38 | 53 ± 1.15 | 45 ± 1.68 | 51 ± 1.44 | 57 ± 1.72 | 62 ± 1.26 | 54 ± 1.67 | equipotent | 0.97 ± 1.53
